Source: US20120316157A1, “PLANT DISEASE CONTROLLING COMPOSITION AND METHOD FOR CONTROLLING PLANT DISEASE” (SUMITOMO CHEMICAL COMPANY, LIMITED, priority 2010, published 2012)
Where two headings read alike, the source gives them in different places.

Tested on: gray mold fungus (Botrytis cinerea)
Assay: Cucumber leaf disk preventive test against gray mold fungus (Test Examples 1, 2 and Reference Example)
Format: in vivo
Protocol: True leaf of cucumber is punched out with cork borer to 13 mm in diameter to prepare a leaf disk. In 24 well microwell plate that is dispensed with 1 ml 0.8% water agar, the leaf disk is placed such that the upper side of the leaf is in an upward direction. Thereto is added 20 micro liter a testing solution prepared by mixing a dimethyl sulfoxide solution of the present compound (racemate) and a dimethyl sulfoxide solution of ferimzone or oxolinic acid to a predetermined concentration to treat the leaf disk.
After confirming that the testing medical solution is dried, conidium of gray mold fungus (Botrytis cinerea) is suspended into potato dextrose broth (DIFCO) in a density of about 10^5 conidium/mL and is then subjected to a spray inoculation. After leaving to stand the leaf disk in a growth chamber set up at 15° C. for four days, an onset area on the leaf is measured and then calculated an onset area rate (hereinafter, referred to as an onset area rate of treated group).
The same operation is carried out with 20 micro liter water instead of 20 micro liter a testing medicine solution to calculate an onset area rate (hereinafter, referred to an onset area rate of non-treated group).
A preventive value is calculated from the above onset area rate of treated group and the onset area rate of non-treated group by the following equation:
Preventive value(%)=100×(A−B)/A
A: an onset area rate of treated group
B: an onset area rate of non-treated group
The same operations as described in Test Example 1 are carried out with fenamidone, acibenzolar-5-methyl, amisulbrom, dazomet, diclomezine, famoxadone, fenoxanil, probenazole, proquinazid, pyroquilon, quinoxyfen, tricyclazole, isoprothiolane or tiadinil instead of ferimzone or oxolinic acid, so as to calculate respective preventive values.
Also for comparison, the same operations as described in Test Example 1 are carried out with the exception that the testing medicine solution is substituted with a predetermined concentration of each dimethyl sulfoxide solution of the present compound (racemate), fenamidone, acibenzolar-5-methyl, amisulbrom, dazomet, diclomezine, famoxadone, fenoxanil, probenazole, proquinazid, pyroquilon, quinoxyfen, tricyclazole, isoprothiolane, or tiadinil, so as to calculate respective preventive values.
For comparison, the same operations as described in Test Example 1 are carried out with the exception that the testing medicine solution is substituted with a predetermined concentration of each dimethyl sulfoxide solution of ferimzone or oxolinic acid, so as to calculate a preventive value.

[1] = Botrytis cinerea, foliar, 96 h, heterocyclic compound alone, 0.5 ppm, 15° C., four days, read-out: preventive value (%)
[2] = Botrytis cinerea, foliar, 96 h, heterocyclic compound alone, 5.0 ppm, 15° C., four days, read-out: preventive value (%)
[3] = heterocyclic compound alone, 0.5 ppm, 15° C., four days
[4] = heterocyclic compound alone, 5.0 ppm, 15° C., four days
[5] = Botrytis cinerea, foliar, 96 h, read-out: preventive value (%), heterocyclic compound alone, 0.5 ppm, 15° C., four days
[6] = Botrytis cinerea, foliar, 96 h, read-out: preventive value (%), heterocyclic compound alone, 5.0 ppm, 15° C., four days

C[C@@]1(c2ccc(Oc3ccccc3)cc2)OC(=O)N(Nc2ccccc2)C1=O (racemic) [famoxadone]
pest or weed control at 0.5 ppm [1]: 10%
pest or weed control at 5 ppm [2]: 15%

CNC(=O)C(OC)c1ccccc1COc1cc(C)ccc1C (racemic) [the present amide compound]
pest or weed control at 1 ppm (Botrytis cinerea, foliar, 96 h, the present amide compound alone, 1.0 ppm, 15° C., four days): 46%
pest or weed control at 2.5 ppm (Botrytis cinerea, foliar, 96 h, the present amide compound alone, 2.5 ppm, 15° C., four days): 56%

CSC(=O)c1cccc2nnsc12 [acibenzolar-S-methyl]
preventive value (%) [3]: 15%
preventive value (%) [4]: 25%

Cc1c(Br)c2ccc(F)cc2n1S(=O)(=O)c1ncn(S(=O)(=O)N(C)C)n1 [amisulbrom]
preventive value (%) [3]: 10%
preventive value (%) [4]: 15%

CN1CSC(=S)N(C)C1 [dazomet]
pest or weed control at 0.5 ppm [5]: 10%
pest or weed control at 5 ppm [6]: 20%

Cc1c(Cl)cc(-c2ccc(=O)[nH]n2)cc1Cl [diclomezine]
pest or weed control at 0.5 ppm [1]: 10%
pest or weed control at 5 ppm [2]: 15%

CSC1=N[C@@](C)(c2ccccc2)C(=O)N1Nc1ccccc1 [fenamidone]
pest or weed control at 0.5 ppm [1]: 5%
pest or weed control at 5 ppm [2]: 10%

CC(Oc1ccc(Cl)cc1Cl)C(=O)NC(C)(C#N)C(C)C (centres unmarked) [fenoxanil]
preventive value (%) [3]: 10%
preventive value (%) [4]: 15%

C/C(=N/Nc1nc(C)cc(C)n1)c1ccccc1C [ferimzone]
pest or weed control at 0.5 ppm [5]: 10%
pest or weed control at 5 ppm [6]: 15%

CC(C)OC(=O)C(C(=O)OC(C)C)=C1SCCS1 [isoprothiolane]
pest or weed control at 0.5 ppm [5]: 10%
pest or weed control at 5 ppm [6]: 15%

C=CCOC1=NS(=O)(=O)c2ccccc21 [probenazole]
pest or weed control at 0.5 ppm [1]: 10%
pest or weed control at 5 ppm [2]: 25%

CCCOc1nc2ccc(I)cc2c(=O)n1CCC [proquinazid]
preventive value (%) [3]: 10%
preventive value (%) [4]: 15%

O=C1CCc2cccc3c2N1CC3 [pyroquilon]
pest or weed control at 0.5 ppm [5]: 10%
pest or weed control at 5 ppm [6]: 15%

Fc1ccc(Oc2ccnc3cc(Cl)cc(Cl)c23)cc1 [quinoxyfen]
pest or weed control at 0.5 ppm [1]: 10%
pest or weed control at 5 ppm [2]: 15%

Cc1ccc(NC(=O)c2snnc2C)cc1Cl [tiadinil]
pest or weed control at 0.5 ppm [1]: 10%
pest or weed control at 5 ppm [2]: 25%

Cc1cccc2sc3nncn3c12 [tricyclazole]
pest or weed control at 0.5 ppm [1]: 10%
pest or weed control at 5 ppm [2]: 15%
